Entries after “also recorded” stand apart in the source; their conditions may differ. Where two headings read alike, the source gives them in different places. Positions of bridges follow the written chain, without caps; N, C: chain ends. Residues, ends and D or L forms follow the SMILES beside them. *: point of attachment. X1 = [N-]=[N+]=NC[C@H](NC(=O)CCC(=O)NCCCOCCOCCOCCCN*)C(=O)O
What was measured:
MRP-14 [1] = molecular target: T1, MRP-14 (Homo sapiens, UniProt P06702); assay: SPR binding of peptides to immobilized His-tagged MRP-14; details: for SPR binding behaviour (in words): sensorgrams, immobilized MRP-14
T1 construct: purchased Novus Biologicals
T1 sequence (P06702 1-114): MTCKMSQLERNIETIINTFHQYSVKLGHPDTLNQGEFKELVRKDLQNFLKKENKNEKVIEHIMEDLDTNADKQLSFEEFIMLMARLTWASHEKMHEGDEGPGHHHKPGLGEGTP
Procedure: Shortlisted MRP-14 targeting peptides (MTPs) were synthesized with a GGGS spacer and C-terminal amidation (Genscript) and their binding affinities characterized by SPR using Biacore T100 (GE Healthcare). PBST (0.05% Tween 20), pH 7.4 containing […] ethylenediaminetetraacetic acid (EDTA) was used as the running buffer. NTA sensor chips (GE Healthcare) were charged with 0.5 mM NiCl2 solution for 2 minutes at a flowrate of 10 μL/min, then 10 μg/mL His-tagged MRP-14 was bound for 2 minutes at 10 μL/min. For testing affinity to MRP-8/14, untagged MRP-8 (Novus Biologicals) was premixed in a 1:1 ratio with His-tagged MRP-14 for 3 hours in the presence of 0.1 mM CaCl2. Peptides at concentrations ranging from 6.25 μM to 100 μM diluted in running buffer were then injected at 30 μL/min for 1 minute association followed by 1 minute dissociation. Affinity was calculated by fitting a saturation binding curve to the equilibrium response vs. peptide concentration graph.
Their binding affinity to MRP-14 was then quantified using surface plasmon resonance (SPR) with an NTA sensor chip. After charging with Ni^2+, His-tagged MRP-14 was immobilized on the chip.

[2] = tested on: platelet thrombi in anticoagulated blood on collagen-coated capillaries; assay: Ex vivo shear-induced thrombus formation in perfusion (flow) chamber; details: for effect on shear-induced thrombus formation: particles 50 μg/mL, arterial shear rate 600 s^−1, versus PBS only control
Procedure: A perfusion chamber (Portola Pharmaceuticals) was used to evaluate the effect of particles on thrombus formation time. Factor Xa inhibitor anticoagulated blood was labeled with […] Rhodamine 6G (Sigma-Aldrich) for 10 minutes. Particles were added at a final concentration of 50 μg/mL and then the blood perfused through human type III collagen-coated rectangular capillaries at an arterial shear rate of 600 s^−. Thrombus formation under flow was then visualized in real time and average fluorescence of platelet aggregation over time quantified.
Particles were added before perfusion at a concentration of 50 μg/mL, and visualization of thrombus formation was achieved through fluorescence signal from cells labeled with Rhodamine 6G (FIG. 5A). After imaging, average pixel intensity of platelet aggregates over time was quantified (FIG. 5B). […] This is a concern when using nanoparticles to target coagulation factors such as platelets and fibrin due to potential incorporation into the coagulation cascade and further aggregation, as illustrated by the use of such particles for mediating hemostasis.

MRP-8/14 = MRP-8/14 (Homo sapiens, UniProt P06702); assay: biochemical
Procedure: Shortlisted MRP-14 targeting peptides (MTPs) were synthesized with a GGGS spacer and C-terminal amidation (Genscript) and their binding affinities characterized by SPR using Biacore T100 (GE Healthcare). PBST (0.05% Tween 20), pH 7.4 containing 50 ethylenediaminetetraacetic acid (EDTA) was used as the running buffer. NTA sensor chips (GE Healthcare) were charged with 0.5 mM NiCl2 solution for 2 minutes at a flowrate of 10 μL/min, then 10 μg/mL His-tagged MRP-14 was bound for 2 minutes at 10 μL/min. […] Peptides at concentrations ranging from 6.25 μM to 100 μM diluted in running buffer were then injected at 30 μL/min for 1 minute association followed by 1 minute dissociation. Affinity was calculated by fitting a saturation binding curve to the equilibrium response vs. peptide concentration graph.

MRP-14 [3] = molecular target: T1, MRP-14; assay: Phage ELISA on MRP-14-coated plates; assay type: binding; details: BSA as background
Procedure: Phage specificity for MRP-14 was verified by performing an ELISA. Polysorp 96-well plates (Nunc) were coated with 50 μL of 50 μg/mL MRP-14 in 0.1 M NaHCO3, pH 8.6 in a humidified chamber overnight at 4° C. The coated wells and additional wells for phage dilutions were blocked with 5 mg/mL BSA in 0.1 M NaHCO3, pH 8.6 for 1 hour at 4° C. After washing 6 times with TBST (0.5% Tween 20), 8 serial fourfold dilutions from 10^12 phages/mL down to 6×10^7 phages/mL were performed in blocked wells then 100 μL of the phages added to MRP-14-coated wells and incubated for 1 hour at room temperature. […] Finally, HRP activity was detected using 100 μL 2,2′-azino-bis(3-ethylbenzothiazoline-6-sulfonic acid) diammonium salt (ABTS) colorimetric substrate solution (Life Technologies) at room temperature for 30 minutes. Absorbance was measured at 410 nm using a Tecan Infinite 200 plate reader
To narrow down the peptide library to the ones with highest affinity, an enzyme-linked immunosorbent assay (ELISA) was performed with the isolated phages. […] Bound phage was detected using horseradish peroxidase (HRP)-labeled anti-M13 antibodies followed by addition of 2,2′-azino-bis(3-ethylbenzothiazoline-6-sulfonic acid) diammonium salt (ABTS) substrate (FIG. 1). […]

[4] = tested on: thrombi in carotid artery; assay: Photochemical injury mouse model of thrombosis, Maestro fluorescence imaging of carotid arteries; assay type: in vivo, C57BL/6 mice; details: sCy5-labeled particles 200 μg i.v. before injury; n=3; contralateral artery as control
Procedure: 8-9 week old male C57BL/6 mice were anesthetized by intraperitoneal injection of 62.5 mg/kg sodium pentobarbital. After anesthesia, peptide-targeted and untargeted TMV particles (200 μg/100 μL) were injected intravenously followed by dissection of the mice to expose the right common carotid artery. Rose Bengal dye (10 mg/mL in PBS) was then administered via tail vein injection and a 540 nm green laser light (1.5 mW, Melles Griot) placed 5 cm from the artery was used to stimulate photochemical injury and induce thrombus formation. A Doppler flow probe (Transonic Systems) was placed under the artery and used to monitor blood flow. The mice were sacrificed after vessel occlusion. The artery and the contralateral control were excised and fixed in formalin, then imaged by Maestro fluorescence imaging to determine targeting of the particles (see below).
(§1) The red fluorescence from sCy5 was imaged using Maestro imager, with 800 ms exposure time for the arteries and 400 ms exposure time for the organs. The signal was filtered with 576 to 621 nm excitation and 635-nm longpass emission filters.
Progressing to the mouse model, the particles were first injected intravenously, then thrombosis was induced through photochemical injury of the carotid artery, specifically through reactive oxygen species formation from the reaction of green laser light with injected Rose Bengal dye. A flow probe was used to monitor the development of thrombosis, and the arteries along with their contralateral control were excised following occlusion of the vessel.

[5] = sCy5-labeled particles i.v.; brain, lungs, heart, kidneys, spleen, liver
Procedure: 8-9 week old male C57BL/6 mice were anesthetized by intraperitoneal injection of 62.5 mg/kg sodium pentobarbital. After anesthesia, peptide-targeted and untargeted TMV particles (200 μg/100 μL) were injected intravenously followed by dissection of the mice to expose the right common carotid artery. […] Additionally, to study the biodistribution of the particles, the brain, heart, lungs, kidneys, spleen, and liver were also excised and imaged with Maestro imager.
as §1
Biodistribution was investigated concurrently with the photochemical injury model. The brain, lungs, heart, kidneys, spleen, and liver were collected and particle clearance examined through Maestro imaging (FIG. 6A).

[6] = kinetic fitting, 390.625 nM to 12.5 μM of MTP6

MRP-8/14, sequence (P05109 whole entry partner, one chain of several): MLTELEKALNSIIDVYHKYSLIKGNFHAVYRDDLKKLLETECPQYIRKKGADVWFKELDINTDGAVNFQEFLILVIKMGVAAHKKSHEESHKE

CC(C)[C@@H]1NC(=O)[C@H](CO)NC(=O)[C@H](CC(N)=O)NC(=O)[C@@H](NC(=O)[C@H](C)N)CSSC[C@@H](C(=O)NCC(=O)NCC(=O)NCC(=O)N[C@@H](CO)C(N)=O)NC(=O)[C@H](Cc2c[nH]cn2)NC(=O)[C@H](Cc2c[nH]cn2)NC(=O)[C@H](CCC(N)=O)NC(=O)[C@H](Cc2c[nH]cn2)NC1=O [MTP6] (H-ACNSVHQHHCGGGS-NH2; disulfide 2-10 (inferred); N-terminus assumed)
Kd (MRP-14 [1]): 39.6 µM | effect on shear-induced thrombus formation [2]: does not appear to block involvement of MRP-14 in thrombosis | Kd (MRP-8/14): 57.6 µM

CC(C)C[C@@H]1NC(=O)CNC(=O)[C@H]([C@@H](C)O)NC(=O)[C@@H]2CCCN2C(=O)[C@@H](NC(=O)[C@H](C)N)CSSC[C@@H](C(=O)NCC(=O)NCC(=O)NCC(=O)N[C@@H](CO)C(N)=O)NC(=O)[C@H](C)NC(=O)[C@H](Cc2c[nH]cn2)NC(=O)[C@H](Cc2c[nH]cn2)NC1=O [MTP9] (H-ACPTGLHHACGGGS-NH2; disulfide 2-10 (inferred); N-terminus assumed)
SPR binding behaviour (in words) (MRP-14 [1]): quick initial interaction followed by a slower binding phase

C[C@H](N)C(=O)N[C@H]1CSSC[C@@H](C(=O)NCC(=O)NCC(=O)NCC(=O)N[C@@H](CO)C(=O)O)NC(=O)[C@H](CO)NC(=O)[C@H](Cc2c[nH]cn2)NC(=O)[C@H](CC(N)=O)NC(=O)[C@H](CC(N)=O)NC(=O)[C@H](CCCCN)NC(=O)[C@@H]2CCCN2C(=O)[C@H](CCCNC(=N)N)NC1=O [MTP10]
SPR binding behaviour (in words) (MRP-14 [1]): did not really associate with MRP-14 | phage binding to MRP-14 (in words) (MRP-14 [3]): one of the best peptides

MDPHAHNGGGS [Scrambled, reference compound]
Kd (dissociation constant from SPR measurements with MRP-14) (MRP-14 [1]; saturation binding curve fit of equilibrium response, peptides 6.25 μM to 100 μM, NTA chip): no | SPR binding behaviour (in words) (MRP-14 [1]): low non-specific binding

CC(C)[C@@H]1NC(=O)[C@H](CO)NC(=O)[C@H](CC(N)=O)NC(=O)[C@@H](NC(=O)[C@H](C)N)CSSC[C@@H](C(=O)NCC(=O)NCC(=O)NCC(=O)N[C@@H](CO)C(=O)NCCCOCCOCCOCCCNC(=O)CCC(=O)N[C@@H](CN=[N+]=[N-])C(=O)O)NC(=O)[C@H](Cc2c[nH]cn2)NC(=O)[C@H](Cc2c[nH]cn2)NC(=O)[C@H](CCC(N)=O)NC(=O)[C@H](Cc2c[nH]cn2)NC1=O [MTP6-N3] (H-ACNSVHQHHCGGGS-X1; disulfide 2-10; N-terminus assumed)
Kd (MRP-14 [1]; saturation binding curve fit of equilibrium response, peptides 6.25 μM to 100 μM, NTA chip, read-out: Kd (dissociation constant from SPR measurements with MRP-14)): 55.7 µM

B1: TMV-MTP6: MTP6-N3 attached to the exterior of tobacco mosaic virus by CuAAC, approximately 400 MTP6 per particle; sCy5-labeled for imaging (conjugate)
peptide: ACNSVHQHHCGGGS
chain: SYSITTPSQFVFLSSAWADPIELINLCTNALGNQFQTQQARTVVQRQFSEVWKPSPQVTVRFPDSDFKVYRYNAVLDPLVTALLGAFDTRNRIIEVENQANPTTAETLDATRRVDDATVAIRSAINNLIVELIRGTGSYNRSSFESSSGLVWTSGPAT
Kd (MRP-14 [1]; kinetic curve fitting instead of equilibrium fit, read-out: Kd (dissociation constant from SPR measurements with MRP-14), kinetic fit): 0.754 µM | ka (association rate) (MRP-14 [1]; [6]): 909.6 M⁻¹ s⁻¹ | kd (dissociation rate) (MRP-14 [1]; [6]): 0.0006858 s⁻¹ | aggregation of particles in blood ([2]; ex vivo flow model): no aggregation observed | effect on shear-induced thrombus formation [2]: some delay in thrombus onset; also recorded: no stimulation of thrombosis; also recorded: no significant effect on thrombosis | targeting of thrombi (fluorescence signal in injured artery) [4]: some success with imaging thrombi; also recorded: targeting was observed; also recorded: targeted TMV-MTP6 attachment to the thrombi and no nonspecific accumulation in the contralateral, uninjured artery | biodistribution / route of clearance [5]: clearance predominantly through the liver
